ChEMBL document CHEMBL4033741, “Dioscin suppresses TGF-β1-induced epithelial-mesenchymal transition and suppresses A549 lung cancer migration and invasion” (2017)
Active and inactive are the calls of the source. No cut-off for these calls is given here.

Experiments:
A549 [1] = assay: Inhibition of TGF-beta1-induced epithelial-mesenchymal transition in human A549 cells assessed as reduction in Smad2 gene expression at 2.5 to 3 uM for 2 hrs followed by TGF-beta1 stimulation for 24 hrs by qRT-PCR method; assay type: functional, cell-based
A549 [2] = assay: Inhibition of TGF-beta1-induced epithelial-mesenchymal transition in human A549 cells assessed as reduction in SNAI2 gene expression at 2.5 to 3 uM for 2 hrs followed by TGF-beta1 stimulation for 24 hrs by qRT-PCR method; assay type: functional, cell-based
A549 [3] = assay: Antiproliferative activity against human A549 cells assessed as cell survival rate at 2.5 uM incubated for 24 hrs by CCK8 assay; assay type: functional; settings: A549, 24 h, read-out: Survival
A549 [4] = assay: Antiproliferative activity against human A549 cells assessed as cell survival rate at 1 uM incubated for 24 hrs by CCK8 assay; assay type: functional; settings: A549, 24 h, read-out: Survival
A549 [5] = assay: Antiproliferative activity against human A549 cells assessed as inhibition of cell growth at 4 uM incubated for 24 to 48 hrs by CCK8 assay; assay type: functional, cell-based
[6] = target: Mothers against decapentaplegic homolog 2 (Homo sapiens) (UniProt Q15796); assay: Inhibition of TGF-beta1-induced Smad2 phosphorylation in human A549 cells at 2.5 to 3 uM for 2 hrs followed by TGF-beta1 stimulation for 24 hrs by Western blot method; assay type: cell-based
Sequence of Mothers against decapentaplegic homolog 2 (Homo sapiens) (Q15796 whole entry): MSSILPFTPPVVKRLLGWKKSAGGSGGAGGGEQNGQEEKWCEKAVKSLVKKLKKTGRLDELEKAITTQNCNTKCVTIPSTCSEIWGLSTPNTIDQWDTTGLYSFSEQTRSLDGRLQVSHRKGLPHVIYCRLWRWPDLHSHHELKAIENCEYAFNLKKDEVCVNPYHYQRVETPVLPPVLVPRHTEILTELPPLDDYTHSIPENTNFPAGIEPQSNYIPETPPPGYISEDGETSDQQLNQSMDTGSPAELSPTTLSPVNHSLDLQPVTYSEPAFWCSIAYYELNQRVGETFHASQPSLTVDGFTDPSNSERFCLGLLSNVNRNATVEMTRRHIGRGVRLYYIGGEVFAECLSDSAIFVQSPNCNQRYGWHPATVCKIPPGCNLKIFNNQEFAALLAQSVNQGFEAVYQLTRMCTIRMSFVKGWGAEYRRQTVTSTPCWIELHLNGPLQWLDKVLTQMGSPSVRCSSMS

[7] = target: Matrix metalloproteinase-9 (Homo sapiens) (UniProt P14780); assay: Inhibition of TGF-beta1-induced MMP9 activity in human A549 cells at 2.5 to 3 uM for 2 hrs followed by TGF-beta1 stimulation for 24 hrs by gelatin zymography; assay type: cell-based
Sequence of Matrix metalloproteinase-9 (Homo sapiens) (P14780 whole entry): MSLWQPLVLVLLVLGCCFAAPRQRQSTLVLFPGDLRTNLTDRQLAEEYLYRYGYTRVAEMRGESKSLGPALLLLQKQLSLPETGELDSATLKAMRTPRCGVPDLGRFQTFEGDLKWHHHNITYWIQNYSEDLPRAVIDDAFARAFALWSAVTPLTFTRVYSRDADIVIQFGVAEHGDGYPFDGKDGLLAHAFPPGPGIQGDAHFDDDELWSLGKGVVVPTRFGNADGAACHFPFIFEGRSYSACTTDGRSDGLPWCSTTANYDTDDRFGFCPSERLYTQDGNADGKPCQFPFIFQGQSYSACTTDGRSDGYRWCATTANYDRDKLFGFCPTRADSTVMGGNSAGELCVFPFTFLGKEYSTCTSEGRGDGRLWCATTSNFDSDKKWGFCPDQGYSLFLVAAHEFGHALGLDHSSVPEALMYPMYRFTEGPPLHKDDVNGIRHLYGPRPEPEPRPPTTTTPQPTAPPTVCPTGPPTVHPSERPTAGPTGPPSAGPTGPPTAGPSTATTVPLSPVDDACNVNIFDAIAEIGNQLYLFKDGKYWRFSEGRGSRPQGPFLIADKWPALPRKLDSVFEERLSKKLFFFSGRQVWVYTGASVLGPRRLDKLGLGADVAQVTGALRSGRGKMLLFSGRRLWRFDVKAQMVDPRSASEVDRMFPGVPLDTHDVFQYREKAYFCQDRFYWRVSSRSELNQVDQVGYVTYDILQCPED

A549 [8] = assay: Inhibition of TGF-beta1-induced epithelial-mesenchymal transition in human A549 cells assessed as reduction in vimentin gene expression at 2.5 to 3 uM for 2 hrs followed by TGF-beta1 stimulation for 24 hrs by qRT-PCR method; assay type: functional, cell-based
A549 [9] = assay: Inhibition of TGF-beta1-induced epithelial-mesenchymal transition in human A549 cells assessed as reduction in Snail protein expression at 2.5 to 3 uM for 2 hrs followed by TGF-beta1 stimulation for 24 hrs by Western blot method; assay type: functional, cell-based
A549 [10] = assay: Inhibition of TGF-beta1-induced epithelial-mesenchymal transition in human A549 cells assessed as decrease in N-cadherin expression pre-incubated for 2 hrs at 2.5 to 3 uM for 2 hrs followed by TGF-beta1 stimulation for 24 hrs by Western blot method; assay type: functional, cell-based
A549 [11] = assay: Inhibition of TGF-beta1-induced epithelial-mesenchymal transition in human A549 cells assessed as reduction in Snail gene expression at 2.5 to 3 uM for 2 hrs followed by TGF-beta1 stimulation for 24 hrs by qRT-PCR method; assay type: functional, cell-based
A549 [12] = assay: Inhibition of TGF-beta1-induced epithelial-mesenchymal transition in human A549 cells assessed as suppression of cell elongation and spindle like shapes pre-incubated for 2 hrs at 2.5 to 3 uM for 2 hrs followed by TGF-beta1 stimulation for 24 hrs; assay type: functional, cell-based
A549 [13] = assay: Antiproliferative activity against human A549 cells assessed as cell survival rate at 2 uM incubated for 24 hrs by CCK8 assay; assay type: functional; settings: A549, 24 h, read-out: Survival
A549 [14] = assay: Inhibition of TGF-beta1-induced epithelial-mesenchymal transition in human A549 cells assessed as reduction in N-cadherin gene expression at 2.5 to 3 uM for 2 hrs followed by TGF-beta1 stimulation for 24 hrs by qRT-PCR method; assay type: functional, cell-based
A549 [15] = assay: Inhibition of TGF-beta1-induced cell migration in human A549 cells at 2.5 to 3 uM treated along with TGF-beta1 stimulation following cell layer cell layer scratching measured after 24 hrs; assay type: functional, cell-based
A549 [16] = assay: Inhibition of TGF-beta1-induced cell invasion in human A549 cells at 2.5 to 3 uM measured after 48 hrs by Matrigel invasion assay; assay type: functional, cell-based
A549 [17] = assay: Inhibition of TGF-beta1-induced epithelial-mesenchymal transition in human A549 cells assessed as increase in E-cadherin expression pre-incubated for 2 hrs at 2.5 to 3 uM for 2 hrs followed by TGF-beta1 stimulation for 24 hrs by Western blot method; assay type: functional, cell-based
A549 [18] = assay: Inhibition of TGF-beta1-induced epithelial-mesenchymal transition in human A549 cells assessed as reduction in TGFbeta gene expression at 2.5 to 3 uM for 2 hrs followed by TGF-beta1 stimulation for 24 hrs by qRT-PCR method; assay type: functional, cell-based
A549 [19] = assay: Inhibition of TGF-beta1-induced MMP9 gene expression in human A549 cells at 2.5 to 3 uM for 2 hrs followed by TGF-beta1 stimulation for 24 hrs by qRT-PCR method; assay type: functional, cell-based
[20] = target: 72 kDa type IV collagenase (Homo sapiens) (UniProt P08253); assay: Inhibition of TGF-beta1-induced MMP2 activity in human A549 cells at 2.5 to 3 uM for 2 hrs followed by TGF-beta1 stimulation for 24 hrs by gelatin zymography; assay type: cell-based
Sequence of 72 kDa type IV collagenase (Homo sapiens) (P08253 110-660 limits assumed): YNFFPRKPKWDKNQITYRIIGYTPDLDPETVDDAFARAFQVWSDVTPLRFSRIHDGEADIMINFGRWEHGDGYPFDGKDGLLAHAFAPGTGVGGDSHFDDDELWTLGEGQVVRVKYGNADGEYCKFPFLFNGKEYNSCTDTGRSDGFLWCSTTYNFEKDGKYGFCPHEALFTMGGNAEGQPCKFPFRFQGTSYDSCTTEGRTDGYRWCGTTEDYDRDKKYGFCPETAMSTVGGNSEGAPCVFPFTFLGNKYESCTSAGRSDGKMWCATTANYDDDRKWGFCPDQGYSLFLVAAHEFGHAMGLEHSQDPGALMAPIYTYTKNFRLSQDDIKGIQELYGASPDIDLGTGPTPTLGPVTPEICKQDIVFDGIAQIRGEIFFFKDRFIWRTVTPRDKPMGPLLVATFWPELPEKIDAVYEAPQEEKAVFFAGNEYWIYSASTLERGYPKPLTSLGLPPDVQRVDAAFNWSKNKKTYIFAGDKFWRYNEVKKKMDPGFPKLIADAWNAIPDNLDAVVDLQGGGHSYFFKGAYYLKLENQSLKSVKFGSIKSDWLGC

A549 [21] = assay: Antiproliferative activity against human A549 cells assessed as cell survival rate at 0.5 uM incubated for 24 hrs by CCK8 assay; assay type: functional; settings: A549, 24 h, read-out: Survival
A549 [22] = assay: Inhibition of TGF-beta1-induced epithelial-mesenchymal transition in human A549 cells assessed as increase in E-cadherin gene expression at 2.5 to 3 uM for 2 hrs followed by TGF-beta1 stimulation for 24 hrs by qRT-PCR method; assay type: functional, cell-based
A549 [23] = assay: Inhibition of TGF-beta1-induced epithelial-mesenchymal transition in human A549 cells assessed as reduction in TGFbetaR1 gene expression at 2.5 to 3 uM for 2 hrs followed by TGF-beta1 stimulation for 24 hrs by qRT-PCR method; assay type: functional, cell-based
A549 [24] = assay: Inhibition of TGF-beta1-induced MMP2 gene expression in human A549 cells at 2.5 to 3 uM for 2 hrs followed by TGF-beta1 stimulation for 24 hrs by qRT-PCR method; assay type: functional, cell-based
A549 [25] = assay: Antiproliferative activity against human A549 cells assessed as cell survival rate at 3 uM incubated for 24 hrs by CCK8 assay; assay type: functional; settings: A549, 24 h, read-out: Survival
[26] = target: MAP kinase p38 (Homo sapiens) (UniProt O15264+Q15759+Q16539+P53778); assay: Inhibition of TGF-beta1-induced p38 phosphorylation in human A549 cells at 2.5 to 3 uM for 2 hrs followed by TGF-beta1 stimulation for 24 hrs by Western blot method; assay type: cell-based

C[C@@H]1CC[C@@]2(OC1)O[C@H]1C[C@H]3[C@@H]4CC=C5C[C@@H](O[C@@H]6O[C@H](CO)[C@@H](O[C@@H]7O[C@@H](C)[C@H](O)[C@@H](O)[C@H]7O)[C@H](O)[C@H]6O[C@@H]6O[C@@H](C)[C@H](O)[C@@H](O)[C@H]6O)CC[C@]5(C)[C@H]4CC[C@]3(C)[C@H]1[C@@H]2C [DIOSCIN]
inhibition (A549 [1]): Dose-dependent effect | inhibition (A549 [2]): Dose-dependent effect | viability at 2.5 µM (A549 [3]): > 80% | viability at 1 µM (A549 [4]): > 80% | growth inhibition (GI) (A549 [5]): Active | inhibition [6]: Dose-dependent effect | inhibition [7]: Active | inhibition (A549 [8]): Dose-dependent effect | inhibition (A549 [9]): Dose-dependent effect | inhibition (A549 [10]): Active | inhibition (A549 [11]): Dose-dependent effect | inhibition (A549 [12]): Active | viability at 2 µM (A549 [13]): > 80% | inhibition (A549 [14]): Dose-dependent effect | inhibition (A549 [15]): Dose-dependent effect | inhibition (A549 [16]): Active | inhibition (A549 [17]): Active | inhibition (A549 [18]): Dose-dependent effect | inhibition (A549 [19]): Dose-dependent effect | inhibition [20]: Active | viability at 0.5 µM (A549 [21]): > 80% | inhibition (A549 [22]): Dose-dependent effect | inhibition (A549 [23]): Dose-dependent effect | inhibition (A549 [24]): Dose-dependent effect | viability at 3 µM (A549 [25]): > 80% | inhibition [26]: Active
